{
  "source": "patent US20190059368A1",
  "about": "“3,5-DIMETHOXYSTILBENE ANALOGS AND USES THEREOF” (The United States of America, as represented by the …, priority 2017, published 2019)",
  "key": {"Colletotrichum acutatum": {"tested_on": "Colletotrichum acutatum", "assay": "Direct bioautography, antifungal", "format": "cell-based", "conditions": "Colletotrichum acutatum; 2 mM; 4 μl spotted (2 μl of the positive controls); average of 2 assays; read-out: zones of inhibition", "protocol": "(§1) The analogs were tested for activity against Colletotrichum acutatum SIMMONDS, C. fragariae BROOKS, and C. gloeosporioides (PENZ) PENZ & SACC. in Penz., using a direct bioautography method as previously described by Tabanca et al. (Nat. Prod. Commun. 2008, 3, 1073) and Wang, et al. (J. Agric. Food Chem. 2013, 61, 4551). Technical grade commercial fungicide standards benomyl, cyprodinil, azoxystrobin, and captan were used at 0.9-1.61 μg/μl concentrations in 95% EtOH. After sample application, each TLC plate was subsequently sprayed with a spore suspension (3.0×10^5 spores/ml) of the fungus of interest and incubated in a moisture chamber for 4 days at 26° C. with a 12 hour photoperiod. Clear zones of fungal growth inhibition on the TLC plate indicated the presence of antifungal constituents in each extract or pure compound. The test compounds were prepared at 2 mM soln. in 95% EtOH, and 4 μl were spotted on the plates (2 μl of the positive controls)."}, "C. fragariae": {"tested_on": "C. fragariae", "assay": "Direct bioautography, antifungal", "format": "cell-based, Colletotrichum fragariae", "conditions": "Colletotrichum fragariae; 2 mM; 4 μl spotted (2 μl of the positive controls); average of 2 assays; read-out: zones of inhibition", "protocol": "as §1"}, "C. gloeosporioides": {"tested_on": "C. gloeosporioides", "assay": "Direct bioautography, antifungal", "format": "cell-based, Colletotrichum gloeosporioides", "conditions": "Colletotrichum gloeosporioides; 2 mM; 4 μl spotted (2 μl of the positive controls); average of 2 assays; read-out: zones of inhibition", "protocol": "as §1"}, "Colletotrichum species": {"tested_on": "Colletotrichum species", "assay": "Direct bioautography, antifungal (overall statement)", "format": "cell-based, Colletotrichum sp.", "protocol": "as §1"}, "Ae. aegypti larvae": {"tested_on": "Ae. aegypti larvae", "assay": "Larvicidal bioassay against 1-day-old Ae. aegypti larvae (screening and dose-response)", "format": "in vivo, Aedes aegypti", "protocol": "Analogs were screened for activity against Ae. aegypti larvae following a bioassay system described in Ali, A., et al. (J. Med. Entomol. 2014, 51, 824). Ae. aegypti larvae used in these studies were from a laboratory colony maintained at the Mosquito and Fly Research Unit at the Center for Medical, Agricultural and Veterinary Entomology, USDA-ARS, Gainesville, Fla. For larval bioassays, the eggs were hatched and the larvae were maintained at a temperature of 27±2° C. and 60±10% RH with a photoperiod regimen of 12:12 hour (Light:Dark). Five 1-day-old Ae. aegypti larvae were added into a droplet of H2O to each well of 24-well plates (BD Labware, Franklin Lakes, N.J., USA) by use of a disposable 22.5-cm Pasteur pipette. A quantity of 50 μl of larval diet (2% slurry of 3:2 beef liver powder (Now Foods, Bloomingdale, Ill., USA) and Brewer's yeast (Lewis Laboratories Ltd., Westport, Conn., USA) was added to each well using a Finnpipette stepper (Thermo Fisher, Vantaa, Finland). All chemicals tested were diluted in DMSO. A quantity of 11 μl of the test chemical was added to the labeled wells, while 11 μl of DMSO was added to control treatments. After the treatment application, the plates were swirled in clockwise and counterclockwise motions and front and back and side to side five times to ensure even mixing of the chemicals. Larval mortality was recorded 24 hours post-treatment. […] Three dosages, 100, 50, and 25 ppm, were used in the screening bioassay to determine the larvicidal activity and each treatment was replicated twice. […] Each treatment was replicated ten times. LC50 Values for larvicidal data were calculated using SAS, Proc Probit. Control mortality was corrected using the Abbott's formula."}, "[1]": {"tested_on": "larvae of ORL and PR strains of Ae. aegypti", "format": "in vivo", "conditions": "for Percent Mortality: larvae, 24 h", "protocol": "(§2) Further tests were performed on compounds 11 and 12 to determine their effect on larvae and adult mosquitoes. The compounds were tested in the standard bioassays using the Orlando (ORL), pesticide-susceptible strain and the Puerto Rico (PR), pyrethroid-resistant strain of Ae. aegypti. The ORL strain has been in continuous colony since 1952 with no pesticide exposure while the resistant PR strain was colonized from egg papers collected near San Juan, PR in June, 2012. The PR strain is available as a resistant reference strain through BEIResources/CDC. Mortality was determined in the larval assays at four different concentrations (1, 0.5, 0.25, and 0.1 μg/μl) and three concentrations for adults (6.25%, 3.125%, and 1.56%). Mortality was recorded 24 h post-application, and in all assays, a negative solvent and a positive control using permethrin were utilized; tests were done in triplicate. Assays were conducted according to published procedures as described in Wanner, J. et al. (Curr. Bioact. Compd. 2015, 11, 13)."}, "[2]": {"tested_on": "adults of ORL and PR strains of Ae. aegypti", "assay": "Adult mosquito assay, ORL and PR strains", "format": "in vivo", "conditions": "both strains", "protocol": "as §2"}, "[3]": {"tested_on": "Cryptococcus neoformans ATCC 90113", "assay": "Antimicrobial microplate assay (modified CLSI)", "format": "cell-based", "conditions": "Cryptococcus neoformans, ATCC90113; Cr. neoformans", "protocol": "(§3) All organisms were obtained from the American Type Culture Collection (ATCC; Manassas, Va., USA) and included the fungi Cryptococcus neoformans ATCC 90113 and the bacteria Staphylococcus aureus ATCC 29213, methicillin-resistant S. aureus ATCC 33591 (MRSA), and Mycobacterium intracellulare ATCC 23068. All organisms were tested using modified versions of the CLSI (formerly NCCLS) methods. For all organisms excluding My. intracellulare, optical density was used to monitor growth. Medium supplemented with 5% AlamarBlue® (BioSource International, Camarillo, Calif., USA) was utilized for growth detection of My. intracellulare. Samples (dissolved in DMSO) were serially diluted in 20% DMSO/saline and transferred (10 μl) in duplicate to 96-well flat-bottom microplates. Inocula were prepared by correcting the OD630 of microbe suspensions in Sabouraud Dextrose for Cr. neoformans, cation-adjusted Mueller-Hinton (Difco) at pH 7.3 for Staphylococcus spp., and 5% AlamarBlue® (BioSource International) in Middlebrook 7H9 broth with OADC enrichment, pH=7.0 for My. intracellulare, to afford an assay volume of 200 μl and final target inocula of: Cr. neoformans.: b 1.5×10^3, My. intracellulare: 2.0×10^6, and Staphylococcus spp.,: 5.0×10^5 CFU/ml. Final sample test concentrations were 1/100th the DMSO stock concentration. Drug controls (Ciprofloxacin (ICN Biomedicals, Ohio, USA) for bacteria and Amphotericin B (ICN Biomedicals) for fungi) were included in each assay. All organisms were read at either 530 nm using the Biotek Powerwave XS plate reader (Bio-Tek Instruments, VT) or 544ex1590em (My. intracellulare) using the Polarstar Galaxy Plate Reader (BMG LabTechnologies, Germany) before and after incubation: Staphylococcus spp. at 35° C. for 16-20 h, Cr. neoformans at 35° C. for 70-74 h, and My. intracellulare at 37° C. and 10% CO2 for 70-74 h. IC50 Values (concentrations that afford 50% inhibition relative to controls) werecalculated using XLfit 4.2 software (IDBS, Alameda, Calif.) using fit model 201."}, "[4]": {"tested_on": "Staphylococcus aureus ATCC 29213", "assay": "Antimicrobial microplate assay (modified CLSI)", "format": "cell-based", "conditions": "ATCC29213, S. aureus", "protocol": "as §3, with “Drug controls (Ciprofloxacin (ICN Biomedicals, Ohio, USA) for bacteria and Amphotericin B (ICN Biomedicals) for fungi) were included in each assay.” left out"}, "[5]": {"tested_on": "methicillin-resistant S. aureus ATCC 33591 (MRSA)", "assay": "Antimicrobial microplate assay (modified CLSI)", "format": "cell-based", "conditions": "Staphylococcus aureus", "protocol": "as §3, with “Drug controls (Ciprofloxacin (ICN Biomedicals, Ohio, USA) for bacteria and Amphotericin B (ICN Biomedicals) for fungi) were included in each assay.” left out"}, "[6]": {"tested_on": "Mycobacterium intracellulare ATCC 23068", "assay": "Antimicrobial microplate assay (modified CLSI, AlamarBlue)", "format": "cell-based", "conditions": "ATCC23068, My. intracellulare", "protocol": "as §3, with “Drug controls (Ciprofloxacin (ICN Biomedicals, Ohio, USA) for bacteria and Amphotericin B (ICN Biomedicals) for fungi) were included in each assay.” left out"}, "[7]": {"conditions": "1-day-old larvae, mortality 24 hours post-treatment"}},
  "note": "Where two headings read alike, the source gives them in different places. Marks after values point to notes of the source that are not given here.",
  "data": [
    {"molecule": "COc1cc(/C=C\\c2ccccc2)cc(OC)c1C", "note": "[Compound 7a, (Z)-1,3-dimethoxy-2-methyl-5-styrylbenzene]", "values": [
      {"measurement": "zone of inhibition at 2000 µM", "setting": "Colletotrichum acutatum", "value": 8, "unit": "mm"},
      {"measurement": "zone of inhibition at 2000 µM", "setting": "C. fragariae", "value": 6.5, "unit": "mm"},
      {"measurement": "zone of inhibition at 2000 µM", "setting": "C. gloeosporioides", "value": 7, "unit": "mm"},
      {"measurement": "inhibitory effect on Colletotrichum species (in words)", "setting": "Colletotrichum species", "value": "strong inhibitory effect"}
    ]},
    {"molecule": "COc1cc(/C=C/c2ccc(O)c(CC=C(C)C)c2)cc(OC)c1", "note": "[Compound 11, (E)-4-(3,5-dimethoxystyryl)-2-(3-methylbut-2-en-1-yl)phenol]", "values": [
      {"measurement": "LC50 (LD50 converted to μM)", "setting": "Ae. aegypti larvae; 1-day-old larvae, 24 hours", "value": 45.31, "unit": "µM"},
      {"measurement": "LD50 (95% CI)", "setting": "Ae. aegypti larvae; [7]", "value": "14.7^b ppm"},
      {"measurement": "LD90 (95% CI)", "setting": "Ae. aegypti larvae; [7]", "value": 34.7, "unit": "ppm"},
      {"measurement": "larvicidal activity (in words)", "setting": "Ae. aegypti larvae; screening at 100, 50 and 25 ppm", "value": "high larvicidal activity"},
      {"measurement": "effectiveness against larvae (in words)", "setting": "[1]; ORL and PR strains", "value": "highly effective"},
      {"measurement": "Percent Mortality", "setting": "[1]; ORL strain, 0.1 μg/μl", "value": 100, "unit": "%"},
      {"measurement": "Percent Mortality", "setting": "[1]; ORL strain, 0.25 μg/μl", "value": 100, "unit": "%"},
      {"measurement": "Percent Mortality", "setting": "[1]; ORL strain, 0.5 μg/μl", "value": 100, "unit": "%"},
      {"measurement": "Percent Mortality", "setting": "[1]; ORL strain, 1.0 μg/μl", "value": 100, "unit": "%"},
      {"measurement": "Percent Mortality", "setting": "[1]; PR strain, 0.1 μg/μl", "value": "93.3 ± 11.5", "unit": "%"},
      {"measurement": "Percent Mortality", "setting": "[1]; PR strain, 0.25 μg/μl", "value": 100, "unit": "%"},
      {"measurement": "Percent Mortality", "setting": "[1]; PR strain, 0.5 μg/μl", "value": 100, "unit": "%"},
      {"measurement": "Percent Mortality", "setting": "[1]; PR strain, 1.0 μg/μl", "value": 100, "unit": "%"},
      {"measurement": "effectiveness against adult mosquitoes (in words)", "setting": "[2]", "value": "somewhat effective"},
      {"measurement": "IC50", "setting": "[3]", "value": 13.6, "unit": "µM"},
      {"measurement": "MIC", "setting": "[3]", "value": 30.8, "unit": "µM"},
      {"measurement": "IC50", "setting": "[4]", "value": 13.1, "unit": "µM"},
      {"measurement": "MIC", "setting": "[4]", "value": 30.8, "unit": "µM"},
      {"measurement": "IC50", "setting": "[5]", "value": 9.1, "unit": "µM"},
      {"measurement": "MIC", "setting": "[5]", "value": 15.4, "unit": "µM"},
      {"measurement": "IC50", "setting": "[6]", "value": 47.2, "unit": "µM"},
      {"measurement": "MIC", "setting": "[6]", "value": 61.7, "unit": "µM"}
    ]},
    {"molecule": "COc1cc(/C=C/c2ccccc2)cc(OC)c1C", "note": "[Compound 6a, (E)-1,3-dimethoxy-2-methyl-5-styrylbenzene]", "values": [
      {"measurement": "zone of inhibition at 2000 µM", "setting": "Colletotrichum acutatum", "value": 5, "unit": "mm"},
      {"measurement": "zone of inhibition at 2000 µM", "setting": "C. fragariae", "value": 5, "unit": "mm"},
      {"measurement": "zone of inhibition at 2000 µM", "setting": "C. gloeosporioides", "value": 5.5, "unit": "mm"},
      {"measurement": "inhibitory effect on Colletotrichum species (in words)", "setting": "Colletotrichum species", "value": "strong inhibitory effect"}
    ]},
    {"molecule": "COc1cc(/C=C\\c2ccc(F)cc2)cc(OC)c1C", "note": "[Compound 7e, (Z)-1,3-dimethoxy-5-(4-fluorostyryl)-2-methylbenzene]", "values": [
      {"measurement": "zone of inhibition at 2000 µM", "setting": "Colletotrichum acutatum", "value": 6, "unit": "mm"},
      {"measurement": "zone of inhibition at 2000 µM", "setting": "C. fragariae", "value": 6, "unit": "mm"},
      {"measurement": "zone of inhibition at 2000 µM", "setting": "C. gloeosporioides", "value": 6, "unit": "mm"},
      {"measurement": "inhibitory effect on Colletotrichum species (in words)", "setting": "Colletotrichum species", "value": "strong inhibitory effect"}
    ]}
  ]
}
